# Where “and” joins values, the source holds several entries; their conditions need not be identical. Equal values may be shown once.
# Tested on: immunopurified mitochondria of DLD1-OMP25HA cells
# Experiment: LC-MS metabolomic profiling, Mito-IP samples
# Format: cell-based, human
# Description: Rapid immunopurification of mitochondria was performed following the published methodology (4). In brief, cells with control or NADK2 knockout were engineered to express the HA-tagged OMP25 protein (Addgene, 83356); or in the case of FIG. 5E, parental DLD1 cells were engineered to express the HA-tagged OMP25 protein or the Myc-tagged OMP25 protein (Addgene, 83355), 30 million cells were washed and dounce homogenized in KPBS (136 mM KCl and 10 mM KH2PO4, pH 7.25). The homogenate was then cleared by centrifugation and the supernatant was applied to anti-HA beads (Thermo Fisher, 88837) and incubated with rotation for 3.5 min. The resultant beads were washed with KPBS and were eluted for different downstream analyses: Triton X-100 lysis buffer (50 mM Tris-HCl, pH 7.4, 150 mM NaCl, 1 mM EDTA, 1% (vol/vol) Triton X-100, and protease inhibitors) was used to elute mitochondria for Western blot analysis; 80:20 methanol:water containing 1.5 μM ^13C^15N labeled amino acids (Cambridge Isotope Laboratories, MSK-A2-1.2) was used to elute mitochondria for liquid chromatography-mass spectrometry (LC-MS) analysis; 80:20 methanol:water was used to elute mitochondria for NAD(H) and NADP(H) measurements; glutathione lysis buffer (see below) was used to elute mitochondria for GSH measurements.
# For negative ionization mode liquid chromatography separation was achieved on an iHILIC-(P) Classic column (100 mm×2.1 mm, 5 μm particle size, HILICON). Mobile phase A was 10 mM ammonium bicarbonate in 10:90 acetonitrile:water with 5 μM medronic acid, pH 9.4 and mobile phase B was 10 mM ammonium bicarbonate in 90:10 acetonitrile:water with 5 μM medronic acid, pH 9.4). The gradient was 0 min, 95% B; 15 min, 50% B; 18 min, 50% B; 19 min, 95% B; 19.10 min, 95% B; 25.5 min, 95% B; 2 mins posttime. Other LC parameters were: flow rate: 200 μL/min; column temperature: 40° C., and injection volume was 2 μL. MS parameters were: gas temp: 300° C.; gas flow: 10 L/min; nebulizer pressure: 40 psig; sheath gas temp: 350° C.; sheath gas flow: 12 L/min; VCap: 3,000 V; fragmentor: 125 V. Data were acquired from m/z 50-1700 with active reference masses correction (m/z: 121.05087 and 922.00980 (positive mode) or m/z: 119.03632 and 980.01638 (negative mode). Peak identification and integration were done based on in-house exact mass and retention time library built from commercial standards. Data analysis and natural isotope abundance correction were performed using MassHunter Profinder software v10.0 (Agilent Technologies).
# For metabolomic profiling of the Mito-IP samples, dried extracts were resuspended in 30 μL of 60:40 acetonitrile:water and an additional 7.5 μL of 100% methanol added to prevent phase separation. Samples were vortexed, incubated on ice for 20 min, and clarified by centrifugation at 20,000 g for 20 min at 4° C. LC-MS analysis was using the iHILIC-(P) Classic negative method described with 6545 Q-TOF mass spectrometer (Agilent Technologies). Whole cell extracts were analyzed in parallel and data analysis was performed using MassHunter Profinder v10.0 software (Agilent Technologies). Metabolite identifications reported were based on either (a) exact mass and retention times matched to authentic standards (denoted as RT in Tables 1A-1G) or (b) exact mass and MS2 spectra match using SIRIUS software (denoted as MS2 in Tables 1A-1G) (https://bio.informatik.uni-jena.de/software/sirius/). Metabolites were considered to be mitochondrial if the average peak area measured in anti-HA Mito-IPs from HA-tagged OMP25 cells was at least 1.5-fold more than in anti-HA Mito-IPs from the control cell expressing Myc-tagged OMP25 (scc Tables 1A-1G; FC>1.5 for [OMP25HA sgCtrl MitoIP vs. OMP25Myc MitoIP]).
# [1] = DLD1-OMP25HA sgCtrl + Piericidin MitoIP, 5 μM 2 hours, rep01-rep03
smiles,measurement,setting,value
C/C=C(\C)[C@H](O)[C@H](C)/C=C(C)/C=C/C/C(C)=C/Cc1nc(OC)c(OC)c(O)c1C [piericidin],2-aminoadipate level,[1],62966 and 65899 and 79200
same,3-hydroxy-3-methylglutarate level,[1],65452 and 77263 and 90857
same,3-hydroxyhexadecanoate level,[1],154313 and 165893 and 273073
same,alpha-ketoglutarate level,[1],36956 and 33481 and 64213
same,carbamoyl aspartate level,[1],61946 and 44834 and 50496
same,citrate level,[1],2652773 and 2956510 and 3197992
same,dodecanoate level,[1],117632035 and 108567664 and 182339246
same,galactonic acid level,[1],79663 and 109571 and 76436
same,glutamine level,[1],58654 and 57894 and 67465
same,"glutathione, reduced (GSH) level",[1],5666886 and 8127441 and 4704089
same,lactate level,[1],2355878 and 2582709 and 1383509
same,malate level,[1],78861 and 87997 and 101969
same,methylmalonate level,[1],49637 and 60988 and 87945
same,methylthioribulose 1-phosphate level,[1],78919 and 79663 and 140471
same,"nicotinamide adenine dinucleotide, reduced (NADH) level",[1],3526961 and 3705811 and 4542289
same,oleate level,[1],3976796 and 4283346 and 4070066
same,palmitate level,[1],58619197 and 59278003 and 34887756
same,pentadecanoic acid level,[1],988055 and 823203 and 616849
same,phenylacetate level,[1],206078 and 155618 and 258772
same,phosphoglycolic acid level,[1],12625 and 17645 and 24712
same,succinate level,[1],32755 and 39006 and 43999
same,taurine level,[1],3028424 and 3328577 and 3010797
same,uridine 5′-monophosphate (UMP) level,[1],149496 and 116561 and 209899
same,glutamate and NADH levels in the mitochondria,"sgCtrl DLD1-OMP25HA cells, 5 μM piericidin for 2 hours before Mito-IP",increased
